Laboratory results taken from patent publication US7994196B2, “Indazole compound and pharmaceutical use thereof” (Mitsubishi Tanabe Pharma Corporation, priority 2004, dated 2011).

system: MMP-9 production; test: Determination of MMP-9 Production Inhibitory Activity (PMA-stimulated HEC3 cells, gelatin zymography); type: cell-based; conditions: Endothelial cell; immortalized human vascular endothelial cells HEC3, PMA 10^-7 M stimulation, 24 hr; test substance at 10, 2, 0.4 and 0.08 μM; read-out: IC50 (MMP-9 production inhibitory rate)
Protocol: Immortalized human vascular endothelial cells HEC3 (supplied by Prof. Iijima of Nagoya University) were subcultured in RPMI1640 medium (Sigma Ltd.) containing 10% fetal calf serum.
The HEC3 cells (5×10^4 cells/well) were plated on a 24-well plate, and cultured in RPMI1640 medium containing 10% fetal calf serum for 24 hr. Each well was washed once with serum-free RPMI1640 medium. Then, RPMI1640 medium (250 μl/well) containing 0.05% fetal calf serum was added to each well, and the cells were further cultured for 2 hr.
The supernatant was removed, and the test substances (Example compounds shown in Table 1) diluted to various concentrations were added and incubated for 1 hr in 0.05% serum-containing RPMI1640 medium and the supernatant was removed again. A medium containing a test substance having the same concentration as in the pre-treatment and PMA (10^−7 M), which is a stimulant, was added at 250 μl/well, and the cells were further cultured for 24 hr.
After completion of the culture, water (50 μl) and 25 μl of SDS buffer (240 mM Tris-HCl (pH 6.8), 8% SDS, 40% glycerol) were added to the culture supernatant (25 μl), and the mixture (10 μl) was electrophoresed on a 7.5% polyacrylamide gel containing 0.1% gelatin.
After the electrophoresis, the gel was washed with Tris-HCl buffer (pH 7.5) containing 0.5% Triton X-100 (Sigma Ltd.) for 1 hr. The gel was immersed in an activation buffer (150 mM NaCl, 50 mM Tris-HCl (pH 7.5), 10 mM CaCl2) at 37° C. for 18 hr to activate MMP-9, and then stained with CBB. The obtained MMP-9 band was converted to numerical values by a densitometer (ATTO. Ltd.).
The MMP-9 production inhibitory rate by the test substance was calculated by the following equation. MMP-9 production inhibitory rate=100−100×{(test substance addition value−non-stimulation value)/(PMA stimulation value−non-stimulation value)}
The MMP-9 production inhibitory rates of the test substance at 10, 2, 0.4 and 0.08 μM were calculated, and IC50 value of the each test substance was determined using an analysis soft (RegExcel).

Compound | IC50
COc1ccccc1C1(C#N)CCN(C(=O)Nc2n[nH]c3ccccc23)CC1 [Ex. 40] | 840 nM
N#CC1(c2cccc(C(F)(F)F)c2)CCN(C(=O)Nc2n[nH]c3ccccc23)CC1 [Ex. 42] | 220 nM
N#CC1(c2ccccc2F)CCN(C(=O)Nc2n[nH]c3ccccc23)CC1 [Ex. 43] | 450 nM
N#CC1(c2ccc(Cl)c(C(F)(F)F)c2)CCN(C(=O)Nc2n[nH]c3ccccc23)CC1 [Ex. 44] | 450 nM
N#CC1(c2cc(F)cc(F)c2)CCN(C(=O)Nc2n[nH]c3ccccc23)CC1 [Ex. 47] | 350 nM
N#CC1(c2ccc(Br)cc2Cl)CCN(C(=O)Nc2n[nH]c3ccccc23)CC1 [Ex. 48] | 770 nM

same assay, conditions: Homo sapiens, Endothelial cell, 24 h, immortalized human vascular endothelial cells HEC3, PMA 10^-7 M stimulation, test substance at 10, 2, 0.4 and 0.08 μM, read-out: IC50 (MMP-9 production inhibitory rate)

Compound | IC50
O=C(Nc1n[nH]c2ccccc12)N1CCC(O)(c2ccc(Cl)c(C(F)(F)F)c2)CC1 [Ex. 1] | 790 nM
O=C(Nc1n[nH]c2ccccc12)N1CCC(O)(c2cccc(C(F)(F)F)c2)CC1 [Ex. 3] | 930 nM
O=C(Nc1n[nH]c2ccccc12)N1CCC(O)(c2ccc(Cl)cc2)CC1 [Ex. 4] | 400 nM
O=C(Nc1n[nH]c2ccccc12)N1CCC(O)(c2cc(F)cc(C(F)(F)F)c2)CC1 [Ex. 6] | 290 nM
O=C(Nc1n[nH]c2ccccc12)N1CCC(O)(c2ccc(F)c(C(F)(F)F)c2)CC1 [Ex. 9] | 340 nM
Cc1ccc(C2(O)CCN(C(=O)Nc3n[nH]c4ccccc34)CC2)cc1C(F)(F)F [Ex. 10] | 530 nM
O=C(Nc1n[nH]c2ccccc12)N1CCC(O)(c2cc(F)cc(F)c2)CC1 [Ex. 12] | 610 nM
O=C(Nc1n[nH]c2ccccc12)N1CCC(O)(c2ccc(F)c(Cl)c2)CC1 [Ex. 15] | 450 nM
O=C(Nc1n[nH]c2ccccc12)N1CCC(O)(c2cccc(Cl)c2F)CC1 [Ex. 20] | 320 nM
O=C(Nc1n[nH]c2ccccc12)N1CCC(O)(c2ccc(Cl)c(Cl)c2)CC1 [Ex. 21] | 380 nM
O=C(Nc1n[nH]c2ccccc12)N1CCC(O)(c2cc(F)cc(Cl)c2)CC1 [Ex. 22] | 330 nM
Cc1cc(C2(O)CCN(C(=O)Nc3n[nH]c4ccccc34)CC2)ccc1Cl [Ex. 23] | 450 nM
O=C(Nc1n[nH]c2ccccc12)N1CCC(O)(c2cccc(Cl)c2)CC1 [Ex. 24] | 210 nM
O=C(Nc1n[nH]c2ccccc12)N1CCC(O)(c2ccc3c(c2)OCO3)CC1 [Ex. 27] | 940 nM
Cc1cccc(C2(O)CCN(C(=O)Nc3n[nH]c4ccccc34)CC2)c1 [Ex. 28] | 360 nM
N#Cc1cccc(C2(O)CCN(C(=O)Nc3n[nH]c4ccccc34)CC2)c1 [Ex. 29] | 910 nM
CSc1cccc(C2(O)CCN(C(=O)Nc3n[nH]c4ccccc34)CC2)c1 [Ex. 30] | 300 nM
CCc1cccc(C2(O)CCN(C(=O)Nc3n[nH]c4ccccc34)CC2)c1 [Ex. 31] | 550 nM
O=C(Nc1n[nH]c2ccccc12)N1CCC(O)(c2cc(Cl)ccc2Cl)CC1 [Ex. 33] | 310 nM

Compound | IC50
O=C(Nc1n[nH]c2ccccc12)N1CCC(O)(c2cc(C(F)(F)F)cc(C(F)(F)F)c2)CC1 [Ex. 34] | 430 nM
O=C(Nc1n[nH]c2ccccc12)N1CCC(O)(c2cc(C(F)(F)F)ccc2F)CC1 [Ex. 35] | 720 nM
O=C(Nc1n[nH]c2ccccc12)N1CCC(O)(c2cc(C(F)(F)F)ccc2Cl)CC1 [Ex. 36] | 540 nM
N#CC1(c2ccc(Br)s2)CCN(C(=O)Nc2n[nH]c3ccccc23)CC1 [Ex. 46] | 550 nM
O=C(Nc1n[nH]c2ccccc12)N1CC=C(c2ccccc2)CC1 [Ex. 49] | 260 nM
O=C(Nc1n[nH]c2ccccc12)N1CC=C(c2ccc(F)cc2)CC1 [Ex. 50] | 1300 nM
O=C(Nc1n[nH]c2ccccc12)N1CC=C(c2ccccc2F)CC1 [Ex. 52] | 320 nM
O=C(Nc1n[nH]c2ccccc12)N1CC=C(c2ccc(F)c(Cl)c2)CC1 [Ex. 53] | 240 nM
O=C(Nc1n[nH]c2ccccc12)N1CC=C(c2cccc(F)c2)CC1 [Ex. 55] | 130 nM
O=C(Nc1n[nH]c2ccccc12)N1CC=C(c2cccc(F)c2F)CC1 [Ex. 56] | 230 nM
O=C(Nc1n[nH]c2ccccc12)N1CC=C(c2ccc(Cl)s2)CC1 [Ex. 58] | 120 nM
Cc1ccsc1C1=CCN(C(=O)Nc2n[nH]c3ccccc23)CC1 [Ex. 59] | 210 nM
O=C(Nc1n[nH]c2ccccc12)N1CC=C(c2cccs2)CC1 [Ex. 60] | 130 nM
O=C(Nc1n[nH]c2ccccc12)N1CC=C(c2cccc(C(F)(F)F)c2)CC1 [Ex. 61] | 100 nM
COc1ccc(C2=CCN(C(=O)Nc3n[nH]c4ccccc34)CC2)cc1OC [Ex. 62] | 690 nM
CN(C)c1cccc(C2=CCN(C(=O)Nc3n[nH]c4ccccc34)CC2)c1 [Ex. 63] | 360 nM
O=C(Nc1n[nH]c2ccccc12)N1CCc2c([nH]c3ccccc23)C1 [Ex. 64] | 120 nM
Cn1c2c(c3ccccc31)CCN(C(=O)Nc1n[nH]c3ccccc13)C2 [Ex. 65] | 160 nM
COCCn1c2c(c3ccccc31)CCN(C(=O)Nc1n[nH]c3ccccc13)C2 [Ex. 66] | 630 nM

Compound | IC50
O=C(Nc1n[nH]c2ccccc12)N1CCc2c([nH]c3ccc(C(F)(F)F)cc23)C1 [Ex. 69] | 160 nM
O=C(Nc1n[nH]c2ccccc12)N1CCc2c([nH]c3ccc(F)cc23)C1 [Ex. 70] | 60 nM
O=C(Nc1n[nH]c2ccccc12)N1CCc2c([nH]c3cc(F)ccc23)C1 [Ex. 71] | 140 nM
O=C(Nc1n[nH]c2ccccc12)N1CCc2c([nH]c3ccc(Cl)cc23)C1 [Ex. 72] | 100 nM
COc1ccc2[nH]c3c(c2c1)CCN(C(=O)Nc1n[nH]c2ccccc12)C3 [Ex. 73] | 90 nM
O=C(Nc1n[nH]c2ccccc12)N1CCc2c([nH]c3ccc(O)cc23)C1 [Ex. 74] | 150 nM
O=C(Nc1n[nH]c2ccccc12)N1CCc2c([nH]c3cc(Cl)ccc23)C1 [Ex. 75] | 110 nM
O=C(Nc1n[nH]c2ccccc12)N1CCc2c([nH]c3cc(C(F)(F)F)ccc23)C1 [Ex. 76] | 240 nM
O=C(Nc1n[nH]c2ccccc12)N1CCc2c([nH]c3cccc(F)c23)C1 [Ex. 77] | 50 nM
O=C(Nc1n[nH]c2ccccc12)N1CCc2c([nH]c3cccc(Cl)c23)C1 [Ex. 78, 5-chloro-1,3,4,9-tetrahydro-β-carboline-2-carboxylic acid (1H-indazol-3-yl)amide] | 280 nM
Cc1cccc2c3c([nH]c12)CN(C(=O)Nc1n[nH]c2ccccc12)CC3 [Ex. 79, 8-methyl-1,3,4,9-tetrahydro-β-carboline-2-carboxylic acid (1H-indazol-3-yl)amide] | 160 nM
O=C(Nc1n[nH]c2ccccc12)N1CCc2c(sc3ccccc23)C1 [Ex. 80, 3,4-dihydro[1]benzothieno[2,3-c]pyridine-2-carboxylic acid (1H-indazol-3-yl)amide] | 250 nM
Cc1ccc2[nH]c3c(c2c1)CCN(C(=O)Nc1n[nH]c2ccccc12)C3 [Ex. 81, 6-methyl-1,3,4,9-tetrahydro-β-carboline-2-carboxylic acid (1H-indazol-3-yl)amide] | 100 nM
O=C(Nc1n[nH]c2ccccc12)N1CCc2c([nH]c3cc(Cl)c(F)cc23)C1 [Ex. 82, 7-chloro-6-fluoro-1,3,4,9-tetrahydro-β-carboline-2-carboxylic acid (1H-indazol-3-yl)amide] | 100 nM
O=C(Nc1n[nH]c2ccccc12)N1CCc2c([nH]c3cc(Cl)c(C(F)(F)F)cc23)C1 [Ex. 83, 7-chloro-6-(trifluoromethyl)-1,3,4,9-tetrahydro-β-carboline-2-carboxylic acid (1H-indazol-3-yl)amide] | 420 nM
O=C(Nc1n[nH]c2ccccc12)N1CCN(c2ccc(Cl)c(C(F)(F)F)c2)CC1 [Ex. 93, 4-[4-chloro-3-(trifluoromethyl)phenyl]-1-piperazinecarboxylic acid (1H-indazol-3-yl)amide] | 170 nM
O=C(Nc1n[nH]c2ccccc12)N1CCN(c2ccc(F)c(C(F)(F)F)c2)CC1 [Ex. 94, 4-[4-fluoro-3-(trifluoromethyl)phenyl]-1-piperazinecarboxylic acid (1H-indazol-3-yl)amide] | 340 nM
COc1ccc(N2CCN(C(=O)Nc3n[nH]c4ccccc34)CC2)cc1C(F)(F)F [Ex. 95, 4-[4-methoxy-3-(trifluoromethyl)phenyl]-1-piperazinecarboxylic acid (1H-indazol-3-yl)amide] | 510 nM
O=C(Nc1n[nH]c2ccccc12)N1CCN(c2cc(F)cc(C(F)(F)F)c2)CC1 [Ex. 97, 4-[3-fluoro-5-(trifluoromethyl)phenyl]-1-piperazinecarboxylic acid (1H-indazol-3-yl)amide] | 210 nM
